# In patent US9033962B2, “Photodynamic therapy including light pretreatment” (Case Western Reserve University, priority 2010, dated 2015):
# How the values were obtained:
# [1] = used topically on skin lesions; cited from earlier work
# [2] = Confocal imaging of skin sections from psoriasis patients with lesions treated with Pc 4 versus Pc 4 plus red light; type: in vivo, human; conditions: for location of Pc 4 fluorescence in skin: psoriasis lesions
# Description: FIG. 2 includes 4 sets of images obtained from confocal imaging of skin sections from two psoriasis patients with lesions to which Pc 4 (0.1 mg/ml) versus Pc 4 (0.1 mg/ml) plus 100 J/cm2 of red light (675 nm) was applied.
# (§1) When treating skin, the area of skin can be covered with an opaque dressing during the interval of time between the first and second photoirradiation to prevent further activation of the photosensitizer by ambient light. While not intending to be bound by theory, the first photoirradiation may increase the ability of the photosensitizing agent to penetrate tissue as a result of breaking up aggregates of the photosensitizing agent and/or by disrupting the tissue barrier as a result of the release of reactive oxygen species. Accordingly, this first photoirradiation can also be referred to as the disruptive photoirradiation, or light pretreatment. The ability of light pretreatment to facilitate the penetration of photosensitizer to lower levels of skin is illustrated by FIGS. 1 and 2.
# A variety of methods are available to determine the amount of energy and/or time necessary for an effective amount of the photosensitizer to reach the desired tissue level, such as a lower level of the skin, under the conditions being used. Such methods can be referred to as photosensitizer localization assays. For example, a biopsy can be obtained after administration of the photosensitizer from which the photosensitizer is chemically extracted and quantified using conventional analytic techniques such as UV spectrophotometry. The photosensitizer (e.g., Pc 4) can also be identified from biopsy samples using confocal imaging of the fluorescence of the photosensitizer either with or without the use of additional labels targeted at specific intracellular components (e.g., DAPI, mitotracker). Such techniques can be helpful to determine therapeutically effective doses, and also to evaluate non-responding subjects for possible poor photosensitizer permeation through the skin or other complications.
# [3] = Pc 4 fluorescence after topical application on mouse ear skin, with or without an initial light dose; type: in vivo; conditions: Pc 4 0.1 mg/mL topical on mouse ear skin, initial small light dose 50 J/cm2, versus 15 minutes of topical application without light
# Source text: FIG. 1 is a pair of photographs showing that photoirradiation of mouse ear skin to which Pc 4 had been topically applied facilitates Pc 4 penetration into the skin.
# as §1
# [4] = human skin 1-2 hours after Pc 4 applied, no light pretreatment; cited from earlier work
# [5] = Time interval for delivery of photosensitizer through skin, with or without first photoirradiation; type: in vivo; conditions: after a first photoirradiation
# Source text: Once the first photoirradiation has been delivered to the area of tissue, a sufficient interval of time should be allowed to pass for an effective amount of the photosensitizer to further penetrate the tissue. In the case of skin tissue, a sufficient interval of time is preferably provided to allow the photosensitizer to reach the lower levels of skin such as the basal epidermis and/or the papillary dermis, which is the upper layer of the dermis immediately beneath the epidermis. The particular layer of skin targeted can vary depending on the disease being treated. Examples of sufficient intervals include 1 hour, 30 minutes, 10 minutes, 5 minutes, or any other interval within this range. In addition to providing sufficient time for the photosensitizer to penetrate the skin to the desired level, care should also be taken to avoid providing too much time, which can result in passage of significant amounts of the photosensitizer beyond the intended site.
structure (smiles),measurement,setting,value
"CN(C)CCC[Si](C)(C)O[Si]1(O)n2c3c4ccccc4c2N=C2N=C(N=c4c5ccccc5c(n41)=NC1=NC(=N3)c3ccccc31)c1ccccc12 (stereo not shown) [Pc 4, HOSiPcOSi(CH3)2(CH2)3N(CH3)2]",safety profile,[1],excellent safety profile
same,location of Pc 4 fluorescence in skin,"[2]; Pc 4 0.1 mg/ml alone, after more than one hour of application",limited to the stratum corneum
same,location of Pc 4 fluorescence in skin,[2]; Pc 4 0.1 mg/ml for 1 hour followed by 100 J/cm2 red light (675 nm),not only in the stratum corneum but also in the epidermis and upper dermis
same,Pc 4 fluorescence in the cells within the epidermis and upper dermis (higher magnification),"[2]; Pc 4 + light (100 J/cm2, 675 nm)",there is indeed Pc 4 fluorescence
same,Pc 4 fluorescence in the cells within the epidermis and upper dermis (higher magnification),[2]; Pc 4 alone,not observed
same,absorption of Pc 4 into the epidermis and upper dermis,[2]; initial dose of light on psoriatic lesions in humans to which Pc 4 has been applied,facilitates the absorption
same,depth of Pc 4 in skin (Pc 4 fluorescence),[3],enhanced
same,absorption in the epidermis,[4],significant absorption
same,absorption in the papillary dermis,[4],minimal to no absorption
same,time interval needed for delivery through skin,[5],fifteen
